Source: patent publication EP4729519A1, “CRYSTAL FORM OF ENPP1 INHIBITOR” (CSPC Zhongqi Pharmaceutical Technology (Shijiazhuang) Co., …, priority 2023, dated 2024)
Where two headings read alike, the source gives them in different places.

Key:
[1] = system: SD rat model of myocardial ischemia; test: Rat myocardial ischemia model (LAD ligation), echocardiography and Masson staining; type: in vivo; settings: rats; for reduction of the degree of fibrosis compared with the vehicle control group: Masson staining
Procedure: This study aimed to evaluate the pharmacodynamic effect of the compound of formula (I) in a SD rat model of myocardial ischemia.
After the animals had acclimated to the facility for one week, the model was established by ligation of the left anterior descending coronary artery (LAD). After model establishment, the rats were administered penicillin (80,000 units/rat, i.m.) for 3 days, and disinfected to prevent infection.
One day after model establishment, the modeled animals were randomly divided into 4 groups according to the baseline body weight and echocardiographic imaging indicators, with 4 animals in each sham group (Sham) and 6 animals in each myocardial infarction model group (MI), and drug administration was then initiated. The control group was given the blank vehicle: 5% DMSO + 45% PEG400 + 50% H2O (1% CMC-Na). The experimental groups were administered by oral gavage at doses of 30 mg/kg and 75 mg/kg, respectively, twice daily for 28 consecutive days. The body weights of the animals were monitored daily after administration, and echocardiographic imaging indicators were measured on days 7 and 28. The primary indicators of echocardiographic evaluation were left ventricular fractional shortening (FS) and left ventricular ejection fraction (LVEF). After the echocardiographic measurement on day 28, heart tissues were collected in a tissue fixative for pathological analysis by Masson's trichrome staining.

[2] = Pharmacokinetic test in mice, plasma concentration by LC-MS/MS; type: in vivo, CD-1 male mice; settings: male, CD-1, mouse; for AUC(0-t): read-out: AUC0-24h
hENPP1 enzyme = target: T1, hENPP1 enzyme (Homo sapiens, UniProt P22413); test: ENPP1 enzymatic inhibition test in vitro (TMP-pNP hydrolysis, OD405); type: biochemical; settings: TMP-pNP substrate, pH 9.5, 37 °C, 0.5 h
T1 sequence (P22413 1-925): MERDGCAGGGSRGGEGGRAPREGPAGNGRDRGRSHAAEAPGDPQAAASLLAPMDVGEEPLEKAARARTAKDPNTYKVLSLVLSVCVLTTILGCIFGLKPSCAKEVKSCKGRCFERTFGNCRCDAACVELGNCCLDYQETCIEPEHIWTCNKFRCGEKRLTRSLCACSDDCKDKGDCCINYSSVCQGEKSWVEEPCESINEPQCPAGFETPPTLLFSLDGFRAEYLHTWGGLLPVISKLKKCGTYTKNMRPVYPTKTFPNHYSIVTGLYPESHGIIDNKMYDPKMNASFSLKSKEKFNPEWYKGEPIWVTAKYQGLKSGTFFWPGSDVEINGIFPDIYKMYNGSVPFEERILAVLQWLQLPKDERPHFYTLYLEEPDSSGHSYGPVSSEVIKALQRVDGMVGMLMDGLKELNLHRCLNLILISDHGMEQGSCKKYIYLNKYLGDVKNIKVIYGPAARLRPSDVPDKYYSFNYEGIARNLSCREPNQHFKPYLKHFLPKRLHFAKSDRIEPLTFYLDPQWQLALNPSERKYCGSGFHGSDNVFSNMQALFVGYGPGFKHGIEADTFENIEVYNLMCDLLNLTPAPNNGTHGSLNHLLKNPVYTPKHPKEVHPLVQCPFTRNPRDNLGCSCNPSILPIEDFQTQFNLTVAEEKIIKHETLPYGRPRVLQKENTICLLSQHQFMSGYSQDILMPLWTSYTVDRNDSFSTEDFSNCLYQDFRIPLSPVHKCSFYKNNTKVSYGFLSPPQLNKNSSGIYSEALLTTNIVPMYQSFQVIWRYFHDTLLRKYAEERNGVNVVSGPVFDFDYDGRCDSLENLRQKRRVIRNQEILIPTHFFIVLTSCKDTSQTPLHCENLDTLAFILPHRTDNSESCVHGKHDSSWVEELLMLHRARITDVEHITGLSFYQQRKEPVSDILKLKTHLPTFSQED
Source text: ENPP1 is a transmembrane glycoprotein capable of hydrolyzing nucleotides and derivatives with nucleotide-5'-monophosphate structures. ENPP1 is capable of hydrolyzing artificially synthesized 5'-p-nitrophenyl monophosphate (TMP-pNP) into nucleotide 5'-monophosphate and p-nitrophenol, while p-nitrophenol is a chromogenic product. The production amount of p-nitrophenol product can be directly measured by its absorbance at 405 nm, which is directly proportional to the enzyme activity.
100X serial gradient dilutions of compound were prepared with DMSO, starting from a stock concentration of 1 mM, and using a 4-fold serial gradient dilution to make 10 concentration points. 300 Nanoliter of compounds at gradient concentrations were transferred to a 384-well assay plate (final concentration: starting at 10 µM, 4-fold serial gradient dilution, 10 concentration points) by using Echo. First, 15 µL of 0.2 ng/uL hENPP1 enzyme (2× final concentration) prepared in an assay buffer (250 mM NaCl, 50 mM Tris, pH = 9.5) was added to each well. […] After incubation at 37 °C for 0.5 h, the OD405 nm value was read by the microplate reader. The percentage of inhibition rate was calculated using the formula: %Inhibition Rate=(ODhigh signal control - ODsample well) / (ODhigh signal control - ODlow signal control)*100. The IC50 value was calculated using four-parameter fitting. […]

[3] = system: C57 BL/6 mouse model of myocardial ischemia; test: Mouse myocardial ischemia model (LAD ligation), echocardiography and Masson staining; type: in vivo; settings: mice; for reduction of the degree of fibrosis compared with the vehicle control group: Masson staining; for increase of left ventricular ejection fraction (LVEF) compared with the vehicle control group / increase of left ventricular fractional shortening (FS) compared with the vehicle control group: day 1; for increase of left ventricular ejection fraction (LVEF) / increase of left ventricular fractional shortening (FS): day 7
Source text: This study aimed to evaluate the pharmacodynamic effect of the compound of formula (I) in a C57 BL/6 mouse model of myocardial ischemia.
After the animals had acclimated to the facility for one week, they were divided into four groups based on their body weights on the day before surgery, with 6 animals in the sham group (Sham) and 8 animals in the model group (MI). On the next day, the animals underwent myocardial ischemia surgery for modeling (the mice in the Sham group only underwent thoracotomy and threading without ligation). The model was established by ligation of the left anterior descending coronary artery (LAD). After model establishment, the mice were administered penicillin (20,000 units/mouse, i.m.) for 3 days, and disinfected to prevent infection.
Each group of animals was administered the corresponding compounds one hour before surgery. The control group (Vehicle) was administered the vehicle: 5% DMSO+45% PEG400+50% H2O (1% CMC-Na). The experimental groups were administered by oral gavage at doses of 4 mg/kg and 20 mg/kg, respectively, twice daily for 28 consecutive days. The body weights of the animals were monitored daily after administration, and echocardiographic imaging indicators were measured on days 1, 7 and 28. The primary indicators of echocardiographic evaluation were left ventricular fractional shortening (FS) and left ventricular ejection fraction (LVEF). After the echocardiographic measurement on day 28, heart tissues were collected in a tissue fixative for pathological analysis by Masson's trichrome staining.

[4] = system: pancreatic cancer Pan02 cells; test: Mouse subcutaneous homograft tumour model of pancreatic cancer Pan02; type: in vivo, C57BL/6 mice; settings: 20 mg/kg oral gavage twice daily
Procedure: • 1. Experimental Objective: The in vivo efficacy of the test drug in the mouse subcutaneous homograft tumour model of pancreatic cancer Pan02 cells was evaluated. • 2. Experimental Methods • 2.1 Cell Culture Mouse pancreatic cancer Pan02 cells were cultured in monolayer in vitro in DMEM medium supplemented with 10% fetal bovine serum, 0.01 mg/mL sinsulin, 1% penicillin/streptomycin/amphotericin B in an incubator at 37 °C with 5% CO2. When the cell saturation was 80%-90% and the number reached the requirement, the cells were harvested, counted, and inoculated. • 2.2 Animals C57BL/6 mice, female, 6-8 weeks old, weighing 18-22 g. The mice were provided by Shanghai Xipu-Bikai Laboratory Animal Co., Ltd., or other suppliers. • 2.3 Tumour Inoculation and Animal Grouping and administration 0.1 Milliliter of Pan02 cells (5×10^6 cells) were inoculated subcutaneously into the right hind back of each mouse, and animal grouping and administration began when the average tumour volume reached about 100-200 mm^3. Animals were weighed and tumour volumes were measured before administration. Mice were randomly divided into groups based on the tumour volume, with 8 mice in each group. […] Tumor volume was calculated using the formula: V=0.5a×b^2, where a and b represented the long and short diameters of the tumour, respectively. […]

[5] = 30mpk oral gavage twice daily, 7th day
[6] = 30mpk oral gavage twice daily, day 28
[7] = 75mpk oral gavage twice daily, 7th day
[8] = 75mpk oral gavage twice daily, day 28

clearance ([2]; 2 mg/kg, IV, 2mpk): 3.2 mL/min/kg
half-life ([2]; 2 mg/kg, IV, 2mpk): 5.35 h
AUC(0-t) ([2]; 2 mg/kg, IV, 2mpk): 10000 ng·h/mL
Vd ([2]; 2 mg/kg, IV, 2mpk, read-out: Vss): 1.08 L/kg
Cmax ([2]; 10 mg/kg, PO, 10mpk): 8080 ng/mL
Tmax ([2]; 10 mg/kg, PO, 10mpk): 2 h
half-life ([2]; 10 mg/kg, PO, 10mpk): 3.5 h
AUC(0-t) ([2]; 10 mg/kg, PO, 10mpk): 47800 ng·h/mL
IC50 (hENPP1 enzyme): 50 pM
Compound: COc1ccc2c3c(cnc2n1)COC(=O)N3Cc1c(F)cc(S(N)(=O)=O)cc1F [Compound of Formula (I), 3,5-difluoro-4-((8-methoxy-2-oxo-2H-[1,3]oxazino[5,4-c][1,8]naphthyridin-1(4H)-yl)methyl)benzenesulfonamide]
reduction of the degree of fibrosis compared with the vehicle control group ([1]; 30 mg/kg twice daily, 28 days): 5.2%
reduction of the degree of fibrosis compared with the vehicle control group ([1]; 75 mg/kg twice daily, 28 days): 6.5%
effect on body weight ([1]; 30 and 75 mg/kg twice daily, 28 days): no significant effect on body weight
increase of LVEF [1, 5]: 11.43%
increase of left ventricular fractional shortening (FS) [1, 5]: 9.73%
increase of LVEF [1, 6]: 18.75%
increase of left ventricular fractional shortening (FS) [1, 6]: 13.01%
increase of LVEF [1, 7]: 18.85%
increase of left ventricular fractional shortening (FS) [1, 7]: 12.62%
increase of LVEF [1, 8]: 23.8%
increase of left ventricular fractional shortening (FS) [1, 8]: 15.88%
reduction of the degree of fibrosis compared with the vehicle control group ([3]; 4 mg/kg twice daily, 28 days): 8.8%
reduction of the degree of fibrosis compared with the vehicle control group ([3]; 20 mg/kg twice daily, 28 days): 9.6%
effect on body weight ([3]; 4 and 20 mg/kg twice daily, 28 days): without any significant effect on body weight
increase of left ventricular ejection fraction (LVEF) compared with the vehicle control group ([3]; 4 mpk oral gavage twice daily): 15%
increase of left ventricular fractional shortening (FS) compared with the vehicle control group ([3]; 4 mpk oral gavage twice daily): 7%
increase of left ventricular ejection fraction (LVEF) ([3]; 4 mpk oral gavage twice daily): 23.4%
increase of left ventricular fractional shortening (FS) ([3]; 4 mpk oral gavage twice daily): 12.2%
increase of left ventricular ejection fraction (LVEF) compared with the vehicle control group ([3]; 20 mpk oral gavage twice daily): 10%
increase of left ventricular fractional shortening (FS) compared with the vehicle control group ([3]; 20 mpk oral gavage twice daily): 5%
increase of left ventricular ejection fraction (LVEF) ([3]; 20 mpk oral gavage twice daily): 23.3%
increase of left ventricular fractional shortening (FS) ([3]; 20 mpk oral gavage twice daily): 12.3%
LVEF and FS in the left ventricle ([3]; day 28, vehicle control group further deteriorated): further maintained the LVEF and FS
effect on the body weight of the mice ([4]; 16 days): no inhibitory effect on the body weight
TGI ([4]; after administration for 16 days, p<0.05 vs control group): 43.4%
